14 compounds from ChEMBL document CHEMBL5154826, “Discovery of the Clinical Candidate MAK683: An EED-Directed, Allosteric, and Selective PRC2 Inhibitor for the Treatment of Advanced Malignancies” (J Med Chem, 2022) can be followed below.

Data set [1] in a line: Inhibition of PRC2 (unknown origin) assessed as reduction in H3K27 trimethylation using H3K27Me0 peptide (21 to 44 residues) as substrate by measuring SAH formation by LC-MS analysis. Also on record: species or system Homo sapiens.
The nature of data set [2]: High throughput solubility of the compound at pH 6.8 after 16 to 24 hrs by MS/MS analysis. To be noted: buffer, time 16-24 hrs. In kind it is physicochemical.
For a further data set, the target named is Cytochrome P450 2D6 (Homo sapiens, UniProt P10635). Put plainly: Inhibition of CYP2D6 in human liver microsomes using bufuralol as substrate incubated for 10 mins in presence of NADPH by LC-MS/MS analysis. In kind it is ADME, Microsome. In general terms: Microsomes from liver hold many membrane-bound enzymes, among them those of drug oxidation.
The target in data set [3] is T1, Alpha-2C adrenergic receptor (Homo sapiens, UniProt P18825).
T1 sequence (P18825 whole entry): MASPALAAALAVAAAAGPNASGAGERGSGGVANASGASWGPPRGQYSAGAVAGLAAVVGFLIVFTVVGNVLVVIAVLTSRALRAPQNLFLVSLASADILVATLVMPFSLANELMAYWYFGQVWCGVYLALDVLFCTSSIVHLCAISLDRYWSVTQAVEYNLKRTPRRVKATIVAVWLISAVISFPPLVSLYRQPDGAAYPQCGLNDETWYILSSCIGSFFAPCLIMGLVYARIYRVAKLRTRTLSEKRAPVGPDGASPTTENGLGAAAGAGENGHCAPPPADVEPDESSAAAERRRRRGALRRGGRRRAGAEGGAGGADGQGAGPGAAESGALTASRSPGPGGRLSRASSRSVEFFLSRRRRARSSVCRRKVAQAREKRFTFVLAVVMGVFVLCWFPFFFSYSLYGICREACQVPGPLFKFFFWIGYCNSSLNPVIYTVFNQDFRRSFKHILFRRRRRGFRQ
The data set is described as follows: Inhibition of alpha2c adrenergic receptor (unknown origin).

Data set [4] has as its system KARPAS-422. The data set is described as follows: Antiproliferative activity against human KARPAS-422 cells expressing EZH2 mutant assessed as inhibition of cell growth after 14 days by beckman coulter counting method. The settings on record: Homo sapiens, KARPAS-422, 336 h; time 14 day. The data set is classed as functional.
Data set [5] can be described thus: Lipophilicity, logD of the compound at pH 7.4 by LC with tandem MS analysis. The data set is classed as physicochemical. The settings on record: buffer, read-out: logD.
Data set [6] can be described thus: Dissociation constant, pKa of compound. The data set is classed as physicochemical.
The target in a further data set is Cytochrome P450 2C9 (Homo sapiens, UniProt P11712). The data set is described as follows: Inhibition of CYP2C9 in human liver microsomes using diclofenac as substrate incubated for 10 mins in presence of NADPH by LC-MS/MS analysis. In kind it is ADME, Microsome.
Data set [7] deals with 3',5'-cyclic-AMP phosphodiesterase 4D (Homo sapiens, UniProt Q08499). The data set is described as follows: Inhibition of human Phosphodiesterase 4D.
Data set [8] can be described thus: High throughput solubility of the compound at pH 7 after 16 to 24 hrs by MS/MS analysis. The data set is classed as physicochemical. The settings on record: buffer, time 16-24 hrs.
Data set [9] in a line: High throughput solubility of the compound at pH 4 after 16 to 24 hrs by MS/MS analysis. In kind it is physicochemical. The settings on record: buffer, time 16-24 hrs.
Another data set deals with Pfeiffer. Put plainly: Antiproliferative activity against human Pfeiffer cells assessed as inhibition of cell growth after 6 days by celltitre-glo assay. The data set is classed as functional. The settings on record: 144 h, time 6 day.
The next data set is described as follows: cells. The settings on record: Homo sapiens, G-401, 48 h.
Data set [10] is described as follows: Permeability across apical to basolateral side in human Caco-2 cells at 10 uM incubated for 2 hrs by LC/MS/MS analysis. The data set is classed as ADME, cell-based. To be noted: Caco-2, read-out: permeability. A general note: Caco-2 monolayers are a common model of the intestinal barrier.
Data set [11] is described as follows: Efflux ratio of apparent permeability across basolateral to apical side over apical to basolateral side in human Caco-2 cells at 10 uM incubated for 2 hrs by LC/MS/MS analysis. In kind it is ADME, cell-based.
Data set [12] can be described thus: Dose normalized AUC in Sprague-Dawley rat at 2 mg/kg, po. The data set is classed as ADME, organism-based. To be noted: in vivo.
Data set [13] can be described thus: Terminal half life in Sprague-Dawley rat at 2 mg/kg, po. In kind it is ADME, organism-based. To be noted: in vivo, read-out: beta t1/2 (converted).
Data set [14] can be described thus: Oral bioavailability in Sprague-Dawley rat at 2 mg/kg. In kind it is ADME, organism-based. To be noted: in vivo.
The target of a further data set is Cytochrome P450 3A4 (Homo sapiens, UniProt P08684). Put plainly: Inhibition of CYP3A4 in human liver microsomes using midazolam as substrate incubated for 10 mins in presence of NADPH by LC-MS/MS analysis. The data set is classed as ADME, Microsome.
Data set [15] concerns KARPAS-422. The data set is described as follows: Antitumor activity against human Karpas-422 cells xenografted Athymic BALB/c nude mouse assessed as effect on tumor growth, at 10 to 300 mg/kg, po bid, treatment started at twenty fifth after implantation of cancer cells measured upto 55 days. In kind it is functional, organism-based. To be noted: dose 10-300 mg/kg, time <= 55.0 day, DDE = dose-dependent effect.

Data set [16] deals with Mus musculus. The data set is described as follows: Reduction of […] in tumor of human Karpas-422 cells xenografted Athymic BALB/c nude mouse tumor at 3 to 300 mg/kg, po bid for 10 days. The data set is classed as functional, organism-based. The settings on record: dose 3-300 mg/kg, time 10.0 day, DDE = dose-dependent effect. For orientation: In xenograft studies the graft and the host belong to different species.

The subject of data set [17] is Mus musculus. The data set is described as follows: Reduction of H3K27 level in tumor of human Karpas-422 cells xenografted Athymic BALB/c nude mouse at 3 to 300 mg/kg, po bid for 21 days. In kind it is functional, organism-based. To be noted: dose 3-300 mg/kg, time 21.0 day, DDE = dose-dependent effect.
In data set [18] the test system is Mus musculus. The data set is described as follows: Reduction of H3K27 level in tumor of human Karpas-422 cells xenografted Athymic BALB/c nude mouse at 3 to 100 mg/kg, po bid measured after 14 days. The data set is classed as functional, organism-based. The settings on record: dose 3-100 mg/kg, time 14.0 day, DDE = dose-dependent effect.
The subject of data set [19] is KARPAS-422. Put plainly: Antitumor activity against human Karpas-422 cells xenografted Athymic NTac:NIH-Whn nude rat assessed as inhibition of cell growth at 0.3 to 60 mg/kg, po, qd upto 130 days. The data set is classed as functional, organism-based. The settings on record: dose 0.3-60 mg/kg, time <= 130.0 day.
Data set [20] relates to PBMC. The data set is described as follows: In vivo inhibition of PRC2 in PBMC collected from human Karpas-422 cells xenografted Athymic NTac:NIH-Whn nude rat assessed as reduction in H3K27me3 level at 30 mg/kg, po, qd upto 4 weeks by FACS method. The data set is classed as functional, organism-based. To be noted: TDE = time-dependent effect.
The test system of data set [21] is PBMC. Put plainly: In vivo inhibition of PRC2 in PBMC collected from human Karpas-422 cells xenografted Athymic NTac:NIH-Whn nude rat assessed as complete recovery of H3K27me3 level at 30 mg/kg, po, qd treated for 4 weeks, followed by 4 weeks recovery period by FACS method. In kind it is functional, organism-based.
The subject of data set [22] is Mus musculus. The data set is described as follows: Reduction of H3K27 level in tumor of human Karpas-422 cells xenografted Athymic BALB/c nude mouse tumor at 20 mg/kg, po qd measured after 14 days. The settings on record: time 14.0 day. The data set is classed as functional, organism-based.

Converted amounts (≈) assume the structure as drawn. The source made the active and inactive calls. No cut-off for these calls is given here.

Cytochrome P450 2D6, sequence (P10635 whole entry): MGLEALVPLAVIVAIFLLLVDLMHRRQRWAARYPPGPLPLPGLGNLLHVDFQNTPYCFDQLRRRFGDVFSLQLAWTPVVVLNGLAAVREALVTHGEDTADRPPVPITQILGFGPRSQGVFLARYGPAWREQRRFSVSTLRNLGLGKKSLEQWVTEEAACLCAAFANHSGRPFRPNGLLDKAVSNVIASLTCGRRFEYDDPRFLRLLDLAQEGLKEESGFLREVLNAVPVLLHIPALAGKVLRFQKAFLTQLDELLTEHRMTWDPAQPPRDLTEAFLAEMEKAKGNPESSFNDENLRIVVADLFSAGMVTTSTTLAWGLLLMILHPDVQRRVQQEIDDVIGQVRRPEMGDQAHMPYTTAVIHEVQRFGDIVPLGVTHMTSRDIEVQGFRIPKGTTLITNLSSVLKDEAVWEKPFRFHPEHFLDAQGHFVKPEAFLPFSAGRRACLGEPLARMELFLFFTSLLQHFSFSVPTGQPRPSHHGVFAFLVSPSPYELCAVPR
3',5'-cyclic-AMP phosphodiesterase 4D, sequence (Q08499 whole entry): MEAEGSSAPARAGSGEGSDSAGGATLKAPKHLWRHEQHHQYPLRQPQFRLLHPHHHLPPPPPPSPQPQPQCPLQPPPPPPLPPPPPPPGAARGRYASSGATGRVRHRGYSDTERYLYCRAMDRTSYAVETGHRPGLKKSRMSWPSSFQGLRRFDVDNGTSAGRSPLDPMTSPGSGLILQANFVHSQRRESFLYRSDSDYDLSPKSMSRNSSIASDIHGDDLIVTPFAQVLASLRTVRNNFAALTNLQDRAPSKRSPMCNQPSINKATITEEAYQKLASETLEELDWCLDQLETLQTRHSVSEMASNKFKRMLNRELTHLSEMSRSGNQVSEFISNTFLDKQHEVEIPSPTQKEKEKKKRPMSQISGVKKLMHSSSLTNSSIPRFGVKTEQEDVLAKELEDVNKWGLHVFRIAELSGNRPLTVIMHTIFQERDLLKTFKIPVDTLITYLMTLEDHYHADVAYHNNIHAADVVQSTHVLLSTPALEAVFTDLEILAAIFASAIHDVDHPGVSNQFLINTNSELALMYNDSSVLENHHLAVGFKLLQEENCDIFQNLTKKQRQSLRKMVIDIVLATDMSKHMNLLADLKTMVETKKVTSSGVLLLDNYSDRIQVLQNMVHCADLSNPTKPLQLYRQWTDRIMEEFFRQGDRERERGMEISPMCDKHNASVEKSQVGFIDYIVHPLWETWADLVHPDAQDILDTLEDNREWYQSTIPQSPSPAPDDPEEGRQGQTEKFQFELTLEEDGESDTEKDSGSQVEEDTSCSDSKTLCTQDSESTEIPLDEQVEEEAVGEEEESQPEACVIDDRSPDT
Cytochrome P450 2C9, sequence (P11712 whole entry): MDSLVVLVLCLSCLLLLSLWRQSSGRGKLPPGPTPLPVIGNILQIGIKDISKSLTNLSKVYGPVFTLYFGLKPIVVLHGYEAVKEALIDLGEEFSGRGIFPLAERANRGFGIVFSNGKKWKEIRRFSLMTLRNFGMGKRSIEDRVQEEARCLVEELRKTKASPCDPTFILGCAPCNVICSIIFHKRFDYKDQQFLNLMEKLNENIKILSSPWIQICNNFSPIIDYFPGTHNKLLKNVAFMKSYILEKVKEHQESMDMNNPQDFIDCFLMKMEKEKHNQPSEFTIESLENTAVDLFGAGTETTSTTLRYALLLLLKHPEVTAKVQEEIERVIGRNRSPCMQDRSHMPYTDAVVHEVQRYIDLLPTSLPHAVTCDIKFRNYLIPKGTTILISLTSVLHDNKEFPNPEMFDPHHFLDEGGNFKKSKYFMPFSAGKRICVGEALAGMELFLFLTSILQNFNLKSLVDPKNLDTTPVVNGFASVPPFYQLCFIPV
Cytochrome P450 3A4, sequence (P08684 whole entry): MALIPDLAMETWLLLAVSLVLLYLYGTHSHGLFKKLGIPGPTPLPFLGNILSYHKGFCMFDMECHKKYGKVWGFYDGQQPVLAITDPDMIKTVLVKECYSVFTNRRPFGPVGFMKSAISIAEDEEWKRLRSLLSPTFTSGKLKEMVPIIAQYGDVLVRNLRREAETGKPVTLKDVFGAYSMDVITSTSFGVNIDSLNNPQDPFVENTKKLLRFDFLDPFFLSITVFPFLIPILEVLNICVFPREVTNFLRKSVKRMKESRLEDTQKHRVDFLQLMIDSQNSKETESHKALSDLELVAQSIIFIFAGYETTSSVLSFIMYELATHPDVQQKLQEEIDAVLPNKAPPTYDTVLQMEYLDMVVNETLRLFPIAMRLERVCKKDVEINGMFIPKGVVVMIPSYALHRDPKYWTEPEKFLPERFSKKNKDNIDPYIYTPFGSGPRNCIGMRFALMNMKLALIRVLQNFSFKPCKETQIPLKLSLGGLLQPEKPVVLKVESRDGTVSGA
Description for cells: Inhibition of PRC2 in human G-401 cells assessed as H3K27 methylation status incubated for 48 hrs by ELISA method

In general, IC50 refers to the midpoint of a concentration-inhibition curve. For orientation: solubility means the dissolved amount per volume that the medium holds. Read a low solubility as little dissolved substance. In the case of `COc1cccc(F)c1CNc1ccc(-c2ccc(C)nc2C)c2nncn12`, the IC50 in data set [1] came out at 0.023 µM; at Cytochrome P450 2D6, 25 µM. This compound also displayed a solubility in data set [2] of 162 µM (≈ 61.1 µg/mL).

On to `Fc1ccc2c(c1CNc1ncc(-c3cccnc3)c3nncn13)CCO2`, for which, in data set [2], the solubility came to 85 µM (≈ 30.8 µg/mL). The half-maximal inhibitory concentration (IC50) at Cytochrome P450 2D6 is 0.019 µM.

What is called GI50 is the concentration that inhibits growth by half. Usually logD stands for lipophilicity at a set pH, counting ionised and neutral species. Usually pKa stands for the pH at which an ionisable group is half protonated. A high value points to a weaker acid or stronger base. Consider `c1cc(CNc2ncc(-c3ccncc3)c3nncn23)c2c(c1)OCC2`, for which the concentration for half-maximal inhibition (IC50) in data set [3] is > 30 µM; in data set [1], 0.017 µM; on Cytochrome P450 2C9 it was > 50 µM; on Cytochrome P450 2D6, 0.2 µM; in data set [7], 10 µM. Besides, the GI50 in the data set on KARPAS-422 [4] was 0.01 µM. In addition, in data set [5], the pH-dependent lipophilicity (logD) stood at 2.5. This compound gave a pKa in [6] of 5.4. The compound further had a solubility in data set [2] of 5 µM (≈ 1.72 µg/mL).

Consider `Cc1ccc(-c2cnc(NCc3c(F)ccc4c3CCO4)n3cnnc23)cn1`, for which the figures for the IC50 (in [1]; on Cytochrome P450 2D6) were 0.019 µM and 7.4 µM, respectively. The concentration in solution in data set [2] (solubility) was 112 µM (≈ 42.2 µg/mL).

In the case of `Cc1ncccc1-c1cnc(NCc2c(F)ccc3c2CCO3)n2cnnc12.Cl`, the solubility is 69 µM in [8] and 494 µM in data set [9].

For `COc1cccc(F)c1CNc1ccc(-c2cccnc2C)c2nncn12`, the values for the 50% inhibitory concentration (IC50) (in data set [1]; at Cytochrome P450 2D6) were 0.011 µM and > 50 µM, respectively. For the same compound, in data set [2], the solubility was found to be 265 µM (≈ 96.3 µg/mL).

In the case of `Cc1ccc(-c2cnc(NCc3c(F)ccc4c3CCO4)n3cnnc23)c(C)n1`, the values for the 50% inhibitory concentration (IC50) (in [1]; on Cytochrome P450 2D6) were 0.005 µM and 31 µM, respectively. This compound also registered a solubility in data set [2] of 308 µM (≈ 120 µg/mL).

For the compound `CN(C)Cc1ccc(-c2cnc(NCc3cccc4c3OCC4)n3cnnc23)cc1`, the 50% inhibitory concentration (IC50) in data set [1] came to 2600 µM.

For `CN(C)Cc1ccc(-c2cnc(NCc3cccc4c3CCO4)n3cnnc23)cc1`, the IC50 amounted to 20 µM in data set [1] and 14 µM in the data set “cells”. Further, in the data set on Pfeiffer, the concentration for 50% growth inhibition (GI50) is 0.067 µM.

For `COc1cccc(CNc2ncc(-c3ccc(CN(C)C)cc3)c3nncn23)c1`, the IC50 worked out at 110 µM in data set [1] and 320 µM in “cells”. The concentration for 50% growth inhibition (GI50) in the data set with Pfeiffer amounted to 2.97 µM.

As to `COc1cccc(F)c1CNc1ccc(-c2cccnc2)c2nncn12`, the IC50 in data set [1] was 0.016 µM; at Cytochrome P450 2D6, 0.4 µM. Moreover, in data set [2], the solubility worked out at 22 µM (≈ 7.69 µg/mL).

As to `CN(C)Cc1ccc(-c2cnc(NCc3cccc4c3OCO4)n3cnnc23)cc1`, the IC50 in data set [1] is 15 µM; in the data set “cells”, 260 µM. Further, the GI50 in the data set on Pfeiffer amounted to 1.3 µM.

For orientation: efflux ratio means a quotient of directional permeabilities that is used to spot active efflux. What is called bioavailability is dose-corrected exposure relative to a reference, in per cent. With `c1cncc(-c2cnc(NCc3cccc4c3CCO4)n3cnnc23)c1`, the IC50 in data set [3] is 3.9 µM; in data set [1], 0.024 µM; at Cytochrome P450 3A4, 29 µM; at Cytochrome P450 2C9, 12 µM; at Cytochrome P450 2D6, 0.1 µM; in data set [7], 2.6 µM. In “cells”, this compound came in with a 50% inhibitory concentration (IC50) of 0.033 µM. In the data set on KARPAS-422 [4], the GI50 came to 0.012 µM. Moreover, the logD in data set [5] stood at 2.6. In data set [6], this compound displayed a pKa of 4.5. The same compound had a solubility in data set [2] of 15 µM (≈ 5.17 µg/mL). Further, the Papp A→B at 2 h, 10 µM in data set [10] came to 30 ×10⁻⁶ cm/s. Moreover, the efflux ratio at 2 h, 10 µM in [11] was 0.96. In addition, the AUC/dose in data set [12] stood at 5790 nM·h. Also, the half-life in data set [13] is 1.5 h. Besides, the bioavailability in [14] stood at 71%.

In the case of `Cc1ncccc1-c1cnc(NCc2c(F)ccc3c2CCO3)n2cnnc12`, the Activity entry in the data set with KARPAS-422 [15], in the data set with Mus musculus [16], with Mus musculus [17] and in the data set with Mus musculus [18] was “Dde” in each case. For the same compound, the outcome in the data set on KARPAS-422 [19] and with Mus musculus [22] was Active. Moreover, in the data set on PBMC [20], the inhibition result was “Tde”. Besides, in the data set on PBMC [21], the inhibition entry was “Active”.
